Experimental data taken from patent US20240409647A1, “BISPECIFIC BINDING PROTEINS AGAINST ALARMINS AND USES THEREOF” (SINOMAB BIOSCIENCE LIMITED, priority 2022, published 2024).

Assays:
hIL17RE = target: T1, hIL17RE (Homo sapiens, UniProt Q8NFR9); experiment: ELISA, SM17 specificity against IL-17 receptor subunits (IL17RE); format: binding; conditions: 0.4 to 0.00064 μg/mL
T1 construct: purchased R&D systems
T1 sequence (Q8NFR9 24-667): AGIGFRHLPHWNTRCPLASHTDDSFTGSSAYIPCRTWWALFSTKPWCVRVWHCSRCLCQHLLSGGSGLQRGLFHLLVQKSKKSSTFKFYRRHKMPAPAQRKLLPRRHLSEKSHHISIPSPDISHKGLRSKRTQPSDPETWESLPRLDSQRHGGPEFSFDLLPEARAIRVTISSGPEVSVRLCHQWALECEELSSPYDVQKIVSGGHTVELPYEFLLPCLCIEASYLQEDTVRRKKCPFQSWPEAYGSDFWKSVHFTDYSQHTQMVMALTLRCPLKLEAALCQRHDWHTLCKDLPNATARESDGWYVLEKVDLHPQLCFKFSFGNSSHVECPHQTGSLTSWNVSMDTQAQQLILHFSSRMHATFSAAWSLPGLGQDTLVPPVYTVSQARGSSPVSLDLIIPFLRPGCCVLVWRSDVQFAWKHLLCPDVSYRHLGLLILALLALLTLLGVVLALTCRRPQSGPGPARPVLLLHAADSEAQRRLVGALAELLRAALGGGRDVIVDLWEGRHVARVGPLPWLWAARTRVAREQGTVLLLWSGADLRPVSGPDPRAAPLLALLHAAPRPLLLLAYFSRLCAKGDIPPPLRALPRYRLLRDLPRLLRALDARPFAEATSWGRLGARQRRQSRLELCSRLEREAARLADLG
Method: A standard ELISA method was used to determine the specificity of SM17 against other human IL17 receptor subunits. Similarly, serially diluted SM17 at different concentrations (final concentrations at 0.4, 0.08, 0.016, 0.0032 and 0.00064 μg/m, respectively) was added to the wells of ELISA plates coated either with human IL-17 receptor subunits A, C, D and E (IL17RA, IL17RC, IL17RD, and IL17RE) (R&D systems).

[1] = tested on: Human renal carcinoma cell line TK-10; experiment: IL-8 release from IL-25/TNFa-treated TK-10 cells; format: cell-based; conditions: 1 mg/mL; 100 ng/mL IL-25, 10 ng/mL TNFa; 24 or 48 hours
Method: Human renal carcinoma cell line TK-10 (NCI-60, NIH, Bethesda, MD) treated with human IL-25 (PeproTech) and TNFa (R&D systems) can lead to the release of IL-8, also known as neutrophil chemotactic factor, an important mediator of the immune reaction in the innate immune system response. Accordingly, the inhibitory effects of SM17 and its murine counterpart (D9.2) on IL-8 release from IL-25/TNFa-treated TK-10 cells was evaluated. Briefly, SM17 (human IgG4 isotype, SinoMab BioScience Limited, Hong Kong, China), SM17-IgG1 (human IgG1 isotype, SinoMab BioScience Limited) and its murine counterpart (D9.2, SinoMab BioScience Limited) at a concentration of 1 mg/mL were added to 2×10^4 of TK-10 cells in the presence of 100 ng/mL of IL-25 and 10 ng/mL of TNFa. Non-specific human IgG1 (SM03, anti-CD22 chimeric antibody, SinoMab BioScience Limited) was used as the control antibody. Treated cells were cultured in OptiMEM (Thermo Fisher Scientific) for 24 or 48 hours at 37° C., and the level of IL-8 release in the culture supernatant was measured by standard ELISA assay using a commercial kit (R&D systems).

[2] = tested on: ILC2 population in human PBMC; experiment: ILC2 cell population in human PBMC culture (flow cytometry); format: cell-based; parameters: key: −: no inhibition; +: weak; ++: moderate; +++: strong inhibition; conditions: IL-2 (10 unit/mL) and three alarmins (10 ng/ml), 5 days
Text: While alarmins are known to work in concert to enhance ILC2 and Th2 cell functions such as increase in cell population, steroids such as Dexamethasone (Dex) can negate these effects, resulting in the mitigation of type 2 immune responses [Jia, Yi et al. American Journal Of Respiratory Cell And Molecular Biology, vol. 55, 5 (2016): 675-683]. ILC2 and Th2 cell population can be determined by flow cytometry (BD FACSVerse) following standard procedures known to those skilled in the art.

Normal human DCs = experiment: Dendritic cell potency assay, TSLP-induced CCL17 production; format: cell-based; parameters: key: −: no inhibition; +: weak; ++: moderate; +++: strong inhibition; conditions: 5 μg/mL; TSLP 10 ng/mL, 5 days
Text: TSLP from inflamed epithelium promotes maturation of dendritic cells (DCs) to prime Th2 responses via CCL17, which induces chemotaxis of CD4+ T cells to mediate inflammation (Kitajima and Ziegler. 2013. “Cutting Edge: Identification Of The Thymic Stromal Lymphopoietin-Responsive Dendritic Cell Subset Critical For Initiation Of Type 2 Contact Hypersensitivity”. J Immunol 191: 4903-4907; Bleck et al. 2015. “Co-Expression Of Type 2 Immune Targets In Sputum-Derived Epithelial And Dendritic Cells From Asthmatic Subjects”. J Allergy Clin Immunol 136: 619-627.e5). Normal human DCs were obtained from Lonza (Bend, OR). The DCs were cultured in LGM-3 medium (Lonza). TSLP (10 ng/mL) is added into the DC cultures for 5 days in the presence of 5 μg/mL of SM17, IgG4 isotype control (Sino Biological), SM17-TSLPR bsBp (SM17 fused with TSLP receptor extracellular domain) or SM17-anti-TSLP bsBp 2 #. The supernatants are harvested and the levels of CCL17 measured by ELISA following the manufacturer's specification (R&D systems).

- binding of SM17 to IL17RE (in words) (hIL17RE): No obvious bindings
Substance: SM17: humanized anti-IL17RB monoclonal antibody, human IgG4 isotype; HC SEQ ID NO: 32, LC SEQ ID NO: 33
- release of IL-8 by IL-25/TNFa-induced TK-10 cells (in words) [1]: efficiently suppress the release of IL-8
- Cell proliferation inhibition, ILC2 [2]: ++
- Potency, inhibition of CCL17 release on dendritic cells (Normal human DCs): −
